Laboratory results as given in publication PMC10175561, “Two single-point mutations in Ankyrin Repeat one drastically change the threshold temperature of TRPV1” (Nature Communications, 2023).

Target: T1, axTRPV1 (Ambystoma mexicanum, UniProt A0A5K7X138)
T1 construct: gene TRPV1; full-length cDNA in pGEMHE, expressed in Xenopus oocytes; cloned in the authors' earlier work
T1 sequence (A0A5K7X138 1-858): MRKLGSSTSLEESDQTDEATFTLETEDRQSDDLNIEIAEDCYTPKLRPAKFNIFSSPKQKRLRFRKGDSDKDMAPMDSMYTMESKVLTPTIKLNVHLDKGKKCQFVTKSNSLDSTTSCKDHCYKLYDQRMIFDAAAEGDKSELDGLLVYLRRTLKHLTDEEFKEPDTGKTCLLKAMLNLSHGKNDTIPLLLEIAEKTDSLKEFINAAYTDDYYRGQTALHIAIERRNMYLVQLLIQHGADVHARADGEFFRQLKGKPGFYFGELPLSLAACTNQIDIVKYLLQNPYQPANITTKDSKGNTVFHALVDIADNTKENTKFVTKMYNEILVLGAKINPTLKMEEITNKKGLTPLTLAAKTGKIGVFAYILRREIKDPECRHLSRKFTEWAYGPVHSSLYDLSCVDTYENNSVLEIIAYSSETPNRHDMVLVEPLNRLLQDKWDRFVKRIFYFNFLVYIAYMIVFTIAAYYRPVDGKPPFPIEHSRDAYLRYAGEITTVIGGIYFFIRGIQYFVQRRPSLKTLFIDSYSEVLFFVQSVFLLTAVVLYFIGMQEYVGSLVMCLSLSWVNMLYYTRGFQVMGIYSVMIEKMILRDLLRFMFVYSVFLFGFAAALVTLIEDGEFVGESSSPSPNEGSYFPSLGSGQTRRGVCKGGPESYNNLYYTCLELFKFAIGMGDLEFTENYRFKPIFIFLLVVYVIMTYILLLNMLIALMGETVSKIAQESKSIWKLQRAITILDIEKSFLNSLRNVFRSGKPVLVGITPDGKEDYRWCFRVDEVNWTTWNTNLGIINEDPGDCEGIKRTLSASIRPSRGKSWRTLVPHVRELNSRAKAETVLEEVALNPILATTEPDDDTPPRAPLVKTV
Experiment: two-electrode voltage clamp, Xenopus oocytes
Format: cell-based
Conditions: agonist, dose-dependent activation; current at -80 mV; bath pH 7.4

## COc1cc(CNC(=O)CCCC/C=C/C(C)C)ccc1O [capsaicin]
  two-electrode voltage clamp, Xenopus oocytes: Capsaicin and acid activated all TRPV1s in a dose-dependent manner
